Test results reported in patent US12329733B2, “Acetyl-leucine or a pharmaceutically acceptable salt thereof for improved mobility and cognitive function” (INTRABIO LTD., priority 2016, dated 2025).
Entries after “also recorded” stand apart in the source; their conditions may differ.

Key:
[1] = test system: patients with postural imbalance / gait disorder; subjects; assay: clinical examination and patient/family reports of balance, gait, dizziness and falls; assay type: in vivo, human; settings: for balance (subjective): 5 g/day
Excerpt: In addition to the mobility assessments disclosed above, mobility in a subject having a mobility disorder associated with ageing may be tested, for example, using assessments of balance and/or through monitoring the number of falls experienced by the subject.

[2] = test system: patient with postural imbalance; assay: Scale for the Assessment and Rating of Ataxia (SARA); assay type: in vivo, human; settings: Example 6: 5 g/day for 1 month; baseline 6.5/40
Excerpt: The patient was examined clinically by means of the following clinical assessments: maximal distance to walk; timed Up and Go test; Scale for the Assessment and Rating of Ataxia (SARA).

[3] = test system: subjects with no apparent dysfunction in cognitive ability or movement/balance; assay: Psychomotor Vigilance Task (Mind Metrics App, 10 trials per test); assay type: in vivo, human; settings: for Statistically significant improvement in PVT performance on treatment?: 5 g/day; for % change in Reaction Time: on-treatment vs baseline
Excerpt: For example, the Psychomotor Vigilance Task (PVT) is a sustained-attention, reaction-timed task that measures the speed with which subjects respond to a visual stimulus. The subject monitors a screen and presses the screen as quickly as possible upon the appearance of visual stimuli. The visual stimuli will then disappear and reappear (at irregular time intervals) e.g., 10 times over the course of the test, with the subject touching the screen as quickly as possible upon each reappearance. Test performance is quantified from an average of the e.g. 10 reaction times. The subject's reaction speed and alertness was assessed using the Mind Metrics App (Psychomotor Vigilance Task, 10 trials per test). The Psychomotor Vigilance Task (PVT) is a sustained-attention, reaction-timed task that measures the speed with which subjects respond to a visual stimulus. The subject is required to monitor a screen and press the screen as quickly as possible upon the appearance of visual stimuli. The visual stimuli will then disappear and reappear (at irregular time intervals) 10 times over the course of the test, with the subject touching the screen as quickly as possible upon each reappearance. Test performance is quantified from an average of the 10 reaction times. […] The subject was assessed for 2 weeks prior to taking acetyl-leucine, which constitutes the baseline period.

subjects / patients = assay: adverse effects / tolerability; assay type: in vivo, human; settings: for tolerability: 3 g/day one week then 5 g/day; for Adverse Effects: 5 g/day
cerebellar patients = settings: cited from earlier work

With `CC(=O)NC(CC(C)C)C(=O)O` (racemic) [acetyl-DL-leucine] as the compound, how does the “balance after ceasing treatment” value ([1]; Example 1: after one-month course ceased) read?
Its value is “remained good for two weeks then deteriorated”.

What about the “walking confidence / balance” value ([1]; Example 1: person, 4.5 g/day, by 7-10 days of treatment) of the same compound?
Its value is “more confident walking due to improved balance”.

What about the “improvements of first and second months, on further treatment” value ([1]; Example 1: remains on 4.5 g per day) of the same compound?
Its value is “have continued”.

What about the “improvements noticed in first month, on second treatment” value ([1]; Example 1: second one-month course, 4.5 g/day) of the same compound?
Its value is “rapidly returned”.

And the dizziness symptoms ([1]; Example 2: person, balance disorder/senile gait disorder, 3 g/day first week then 5 g/day, Day 14)?
Its dizziness symptoms is “improvement of dizziness symptoms”.

And the frequency of falls ([1]; Example 2: person, 3 g/day first week then 5 g/day, Day 14)?
Its frequency of falls is “significant reduction in the frequency of falls”.

What about the hypokinetic-rigid syndrome ([1]; Example 2: person, Day 14) of the same compound?
The hypokinetic-rigid syndrome was “No change”.

What about the “dizziness symptoms after suspension of treatment” value ([1]; Example 2: treatment suspended Day 56, re-evaluated Day 62) of the same compound?
The value was “increase of dizziness symptoms two days after suspension of treatment”.

And the “time when improvement began” value ([1]; Example 3: person)?
Its value is “second week of treatment”.

What about the “dizziness and imbalance (spouse feedback)” value ([1]; Example 3: person, 3 g/day one week then 5 g/day, 22 days after beginning treatment) of the same compound?
The value was “significant reduction of dizziness and imbalance”.

And the “gait (spouse feedback)” value ([1]; Example 3: person, 22 days after beginning treatment)?
Its value is “significant improvement of gait”.

And the “gait and imbalance (patient and child report)” value ([1]; Example 4: person, 3 g/day one week then 5 g/day, 3 weeks after beginning treatment)?
The value was “significantly improved”.

What about the “clinical examination of gait and balance” value ([1]; Example 5: Day 42, 3 gram per day) of the same compound?
Its value is “significant improvement of gait and balance”.

And the “spouse report on re-evaluation” value ([1]; Example 5: Day 42, 3 gram per day restarted Day 28)?
Its value is “dramatic improvement with impact on functioning and quality of living”.

And the falls ([1]; Example 5: Day 42, four falls over three months before Day 0)?
The falls was “No further falls were reported”.

What about the “symptoms after medication was stopped” value ([1]; Example 5: medication stopped after two weeks) of the same compound?
Its value is “worsening of symptoms”.

And the “gait (patient and spouse report)” value ([1]; Example 5: patient, progressive gait disorder, 3 gram per day for two weeks)?
The value was “considerable improvement of gait”.

What about the “improvements on lower dosage” value ([1]; Example 6: 1 g/1 g/1 g for over 4 months) of the same compound?
Its value is “remained unchanged”.

And the sway ([1]; Example 6: 5 g/day for 1 month)?
The sway was “became visibly calmer”.

And the “stance with feet together, tandem stance and gait” value ([1]; Example 6: 5 g/day for 1 month, tandem stance and gait not possible at baseline)?
Its value is “possible with increased omnidirectional sway”.

And the “postural stability (subjective)” value ([1]; Example 6: 5 g/day for 1 month, walking and stairs)?
Its value is “subjectively more postural stable”.

And the frequency of falls ([1]; Example 6: current state on 1 g/1 g/1 g, 2-3 per month before treatment)?
The frequency of falls was 0-1 /month.

What about the “falls during therapy period” value ([1]; Example 6: therapy period of 1 month, 2-3 per month before) of the same compound?
Its value is “did not record any falls”.

What about the “balance (subjective)” value ([1]; Example 7: 66 M) of the same compound?
Its value is “improvement in their balance”.

What about the “balance (subjective)” value ([1]; Example 8: 29 M) of the same compound?
Its value is “no difference in balance”.

What about the SARA [2] of the same compound?
The SARA was 2 /40.

What about the “Statistically significant improvement in PVT performance on treatment?” value (shortened to “Statistically significant improvement”) ([3]; Example 7: 66 M, p<0.0001) of the same compound?
Its value is “significant improvement in Psychomotor Vigilance Task performance”.

What about the “Statistically significant improvement” value ([3]; Example 7: 66 M, p<0.0001, listed as acetyl-leucine) of the same compound?
The value was “Yes”.

And the “% change in Reaction Time” value ([3]; Example 7: 66 M)?
Its value is −30.86%.

And the “Statistically significant improvement” value ([3]; Example 8: 29 M, p<0.05)?
The value was “small but statistically significant improvement”.

And the “Statistically significant improvement” value ([3]; Example 8: 29 M, p<0.05, listed as acetyl-leucine)?
The value was “Yes”.

What about the “% change in Reaction Time” value ([3]; Example 8: 29 M) of the same compound?
The value was −3.593%.

What about the “Statistically significant improvement” value ([3]; Example 9: 55 F) of the same compound?
The value was “not associated with significant changes”.

What about the “Statistically significant improvement” value ([3]; Example 9: 55 F, listed as acetyl-leucine) of the same compound?
Its value is “No”.

And the “% change in Reaction Time” value ([3]; Example 9: 55 F)?
Its value is 1.408%.

What about the “Statistically significant improvement” value ([3]; Example 10: […]) of the same compound?
The value was “small, non-statistically significant decline”.

What about the “Statistically significant improvement” value ([3]; Example 10: […], listed as acetyl-leucine) of the same compound?
The value was “No”.

And the “% change in Reaction Time” value ([3]; Example 10: […])?
The value was 8.13%.

And the “Statistically significant improvement” value ([3]; Example 11: 53 M, p<0.01)?
Its value is “statistically significant improvements”.

And the “Statistically significant improvement” value ([3]; Example 11: 53 M, p<0.01, listed as acetyl-leucine)?
The value was “Yes”.

And the “% change in Reaction Time” value ([3]; Example 11: 53 M)?
Its value is −10.24%.

And the “Statistically significant improvement” value ([3]; Example 12: 48 F, p<0.001)?
Its value is “statistically significant improvements”.

And the “Statistically significant improvement” value ([3]; Example 12: 48 F, p<0.001, listed as acetyl-leucine)?
The value was “Yes”.

And the “% change in Reaction Time” value ([3]; Example 12: 48 F)?
The value was −7.474%.

And the side effects (subjects / patients; Example 1: person, 4.5 g per day, over eighteen months)?
Its side effects is “no side effects”.

And the tolerability (subjects / patients; Example 3: person)?
Its tolerability is “well tolerated”.

What about the tolerability (subjects / patients; Example 4: person) of the same compound?
The tolerability was “very well tolerated”.

What about the side effects (subjects / patients; Example 6: 2 g/1.5 g/1.5 g per day dosage regimen) of the same compound?
Its side effects is “Sleepiness”.

And the “side effects after dose reduction” value (subjects / patients; Example 6: reduced to 1 g/1 g/1 g daily after 1 month, listed as Tanganil®)?
The value was “cease in these side-effect symptoms; also recorded: have not returned”.

And the “Adverse Effects” value (subjects / patients; Example 7: 66 M, first week on medication)?
Its value is “mild dizziness/lightheadedness on one occasion”.

What about the “Adverse Effects” value (subjects / patients; Example 8: 29 M, 4 weeks) of the same compound?
The value was “None reported”.

What about the “Adverse Effects” value (subjects / patients; Example 9: 55 F, 4 weeks) of the same compound?
The value was “None reported”.

And the “Adverse Effects” value (subjects / patients; Example 10: 50 M, 2 weeks)?
Its value is “None reported”.

And the “Adverse Effects” value (subjects / patients; Example 11: 53 M, 4 weeks)?
The value was “None reported”.

What about the “Adverse Effects” value (subjects / patients; Example 12: 48 F, 4 weeks) of the same compound?
The value was “None reported”.

And the cerebellar symptoms (cerebellar patients; case series, ref (5))?
Its cerebellar symptoms is “Improvement of cerebellar symptoms”.

And the “benefit in another case series” value (cerebellar patients; ref (6))?
Its value is “did not find benefit”.
